# Entries after “also recorded” stand apart in the source; their conditions may differ. Like-named read-outs stand apart in the source and are kept apart here.
# Assays:
# [1] = Stability of hydrogen peroxide in sugar solution; conditions: ambient temperature
# [2] = tested on: honeybee (Apis mellifera) workers; conditions: for X3, best estimate of EC5 concentration (Molar hydrogen peroxide): cubic model solution; for EC5 (Percent): percent H2O2 calculated from X3; for Predicted LC50 Log10 Molar (±se) / Predicted LC50 (Molar) / Predicted LC50 (Percent): oral, in 2M sucrose; for Predicted LC50 Log10 Molar (±se): Probit analysis; for Predicted LC50 (Molar): inverse of log10 data; for Predicted LC50 (Percent): percent hydrogen peroxide
# Protocol: The twenty-four and forty-eight hour oral lethal concentration (LC50) of formulated hydrogen peroxide (HP) was determined for one-week and two-week old honeybee (Apis mellifera) workers fed a series of solutions of HP diluted in 2 Molar (M) sucrose.
# Five hydrogen peroxide (HP) solutions at 4.7, 3.7, 2.7, 1.7, 0.7 M HP in 2 Molar (M) sucrose, and a 0.00 M HP 2M sucrose solution were prepared using 35% food grade hydrogen peroxide, molecular grade sucrose (Sigma Aldrich, USA), and molecular grade water (Sigma Aldrich, USA).
# Approximately 200 bees were collected into several wooden cages, supplied with ad libitum HP-free 2M sucrose solution, water, and BeePro® supplemented pollen patty. Experimental trials commenced at seven and fourteen days after newly emerged honeybees were placed in cages.
# Following this, an EC5 was calculated by solving the cubic (sigmoidal) model for ‘x’ given an intercept term constrained to zero (concentration) and a ‘y’ value of 0.05.
# [3] = one-week old honeybees, 24 Hour
# [4] = one-week old honeybees, 48 Hour
# [5] = two-week old honeybees, 24 Hour
# [6] = two-week old honeybees, 48 Hour
smiles,measurement,setting,value
OO [hydrogen peroxide],Stability (degradation) of hydrogen peroxide in sugar solution,"[1]; 0.1% and 1.0% H2O2 in 50% (w/w) sucrose, over 7 weeks",No degradation; also recorded: stable in a sugar solution
same,Hydrogen peroxide concentration in sugar solution,"[1]; nominal 0.1% H2O2 in 50% (w/w) sucrose, 10 days",0.134
same,Hydrogen peroxide concentration in sugar solution,"[1]; nominal 0.1% H2O2 in 50% (w/w) sucrose, 27 days",0.134
same,Hydrogen peroxide concentration in sugar solution,"[1]; nominal 0.1% H2O2 in 50% (w/w) sucrose, 51 days",0.130
same,Hydrogen peroxide concentration in sugar solution,"[1]; nominal 0.1% H2O2 in 50% (w/w) sucrose, time 0",0.134
same,Hydrogen peroxide concentration in sugar solution,"[1]; nominal 1.0% H2O2 in 50% (w/w) sucrose, 10 days",1.089
same,Hydrogen peroxide concentration in sugar solution,"[1]; nominal 1.0% H2O2 in 50% (w/w) sucrose, 27 days",1.058
same,Hydrogen peroxide concentration in sugar solution,"[1]; nominal 1.0% H2O2 in 50% (w/w) sucrose, 51 days",1.089
same,Hydrogen peroxide concentration in sugar solution,"[1]; nominal 1.0% H2O2 in 50% (w/w) sucrose, time 0",1.077
same,Mean (±se) Mortality,"[2]; 0.7 Molar H2O2 in 2M sucrose, one-week old honeybees, 24 Hour",3.38 (1.38)
same,Mean (±se) Mortality,"[2]; 0.7 Molar H2O2 in 2M sucrose, one-week old honeybees, 48 Hour",9.63 (2.23)
same,Mean (±se) Mortality,"[2]; 0.7 Molar H2O2 in 2M sucrose, two-week old honeybees, 24 Hour",7.00 (2.19)
same,Mean (±se) Mortality,"[2]; 0.7 Molar H2O2 in 2M sucrose, two-week old honeybees, 48 Hour",12.75 (1.96)
same,Mean (±se) Mortality,"[2]; 1.7 Molar H2O2 in 2M sucrose, one-week old honeybees, 24 Hour",10.25 (1.42)
same,Mean (±se) Mortality,"[2]; 1.7 Molar H2O2 in 2M sucrose, one-week old honeybees, 48 Hour",18.13 (1.06)
same,Mean (±se) Mortality,"[2]; 1.7 Molar H2O2 in 2M sucrose, two-week old honeybees, 24 Hour",12.00 (2.32)
same,Mean (±se) Mortality,"[2]; 1.7 Molar H2O2 in 2M sucrose, two-week old honeybees, 48 Hour",16.25 (1.50)
same,Mean (±se) Mortality,"[2]; 2.7 Molar H2O2 in 2M sucrose, one-week old honeybees, 24 Hour",15.63 (1.19)
same,Mean (±se) Mortality,"[2]; 2.7 Molar H2O2 in 2M sucrose, one-week old honeybees, 48 Hour",19.88 (1.63)
same,Mean (±se) Mortality,"[2]; 2.7 Molar H2O2 in 2M sucrose, two-week old honeybees, 24 Hour",14.13 (2.12)
same,Mean (±se) Mortality,"[2]; 2.7 Molar H2O2 in 2M sucrose, two-week old honeybees, 48 Hour",19.50 (1.00)
same,Mean (±se) Mortality,"[2]; 3.7 Molar H2O2 in 2M sucrose, one-week old honeybees, 24 Hour",15.25 (1.70)
same,Mean (±se) Mortality,"[2]; 3.7 Molar H2O2 in 2M sucrose, one-week old honeybees, 48 Hour",21.50 (0.96)
same,Mean (±se) Mortality,"[2]; 3.7 Molar H2O2 in 2M sucrose, two-week old honeybees, 24 Hour",16.63 (1.92)
same,Mean (±se) Mortality,"[2]; 3.7 Molar H2O2 in 2M sucrose, two-week old honeybees, 48 Hour",20.75 (0.53)
same,Mean (±se) Mortality,"[2]; 4.7 Molar H2O2 in 2M sucrose, one-week old honeybees, 24 Hour",15.75 (1.53)
same,Mean (±se) Mortality,"[2]; 4.7 Molar H2O2 in 2M sucrose, one-week old honeybees, 48 Hour",21.38 (0.99)
same,Mean (±se) Mortality,"[2]; 4.7 Molar H2O2 in 2M sucrose, two-week old honeybees, 24 Hour",17.88 (1.51)
same,Mean (±se) Mortality,"[2]; 4.7 Molar H2O2 in 2M sucrose, two-week old honeybees, 48 Hour",20.13 (1.36)
same,honey bee mortality versus control group,"[2]; all tested concentrations (0.7-4.7 M HP in 2M sucrose), Wilcoxon multiple comparisons P<0.001",significantly greater than mortality of honeybees in control group
same,"X3, best estimate of EC5 concentration (Molar hydrogen peroxide)",[2]; [3],0.21 Molar
same,EC5 (Percent),[2]; [3],0.57%
same,"X3, best estimate of EC5 concentration (Molar hydrogen peroxide)",[2]; [4],0.15 Molar
same,EC5 (Percent),[2]; [4],0.41%
same,Predicted LC50 Log10 Molar (±se),[2]; [3],0.29 (0.02) Log10 Molar
same,Predicted LC50 (Molar),[2]; [3],1.95 (0.09) Molar
same,Predicted LC50 (Percent),[2]; [3],5.30 (0.25) Percent
same,Predicted LC50 Log10 Molar (±se),[2]; [4],−0.10 (0.03) Log10 Molar
same,Predicted LC50 (Molar),[2]; [4],0.79 (0.05) Molar
same,Predicted LC50 (Percent),[2]; [4],2.15 (0.14) Percent
same,Predicted LC50 Log10 Molar (±se),[2]; [5],0.15 (0.03) Log10 Molar
same,Predicted LC50 (Molar),[2]; [5],1.41 (0.10) Molar
same,Predicted LC50 (Percent),[2]; [5],3.84 (0.28) Percent
same,Predicted LC50 Log10 Molar (±se),[2]; [6],−0.25 (0.06) Log10 Molar
same,Predicted LC50 (Molar),[2]; [6],0.56 (0.08) Molar
same,Predicted LC50 (Percent),[2]; [6],1.52 (0.22) Percent
same,"X3, best estimate of EC5 concentration (Molar hydrogen peroxide)",[2]; [5],0.20 Molar
same,EC5 (Percent),[2]; [5],0.54%
same,"X3, best estimate of EC5 concentration (Molar hydrogen peroxide)",[2]; [6],0.15 Molar
same,EC5 (Percent),[2]; [6],0.41%

# Reference: patent publication US20220323490A1, “PREVENTION OF DISEASES IN HONEYBEES” (Arkema Inc., priority 2019, published 2022)
